The values that follow come from patent US7368578B2, “Five-membered heterocyclic compounds” (Takeda Pharmaceutical Company Limited, priority 2002, dated 2008).

In one data set the target is T1, human PPARγ1 (Homo sapiens, UniProt P37231).
T1 construct: expressed in transfected cells; host or cells: CHO-K1 cells stably transfected with pVgRXR2-hPPARγ and reporter plasmid pGL3-4ERPP-TK neo
T1 sequence (P37231 1-477 isoform P37231-2): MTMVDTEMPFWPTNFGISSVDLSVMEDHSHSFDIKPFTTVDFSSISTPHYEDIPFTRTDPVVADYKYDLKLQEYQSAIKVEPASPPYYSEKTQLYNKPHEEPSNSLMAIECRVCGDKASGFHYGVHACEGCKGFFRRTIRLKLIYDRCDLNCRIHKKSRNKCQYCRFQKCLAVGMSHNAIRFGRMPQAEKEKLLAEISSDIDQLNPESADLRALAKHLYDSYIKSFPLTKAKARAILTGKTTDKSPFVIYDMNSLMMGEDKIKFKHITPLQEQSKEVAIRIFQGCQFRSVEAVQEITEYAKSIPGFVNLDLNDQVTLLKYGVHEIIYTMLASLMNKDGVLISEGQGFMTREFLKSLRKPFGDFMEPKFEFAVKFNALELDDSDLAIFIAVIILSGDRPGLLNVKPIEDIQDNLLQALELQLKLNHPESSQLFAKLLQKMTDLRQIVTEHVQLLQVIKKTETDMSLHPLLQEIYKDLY
T1 sequence (P19793 1-462 partner): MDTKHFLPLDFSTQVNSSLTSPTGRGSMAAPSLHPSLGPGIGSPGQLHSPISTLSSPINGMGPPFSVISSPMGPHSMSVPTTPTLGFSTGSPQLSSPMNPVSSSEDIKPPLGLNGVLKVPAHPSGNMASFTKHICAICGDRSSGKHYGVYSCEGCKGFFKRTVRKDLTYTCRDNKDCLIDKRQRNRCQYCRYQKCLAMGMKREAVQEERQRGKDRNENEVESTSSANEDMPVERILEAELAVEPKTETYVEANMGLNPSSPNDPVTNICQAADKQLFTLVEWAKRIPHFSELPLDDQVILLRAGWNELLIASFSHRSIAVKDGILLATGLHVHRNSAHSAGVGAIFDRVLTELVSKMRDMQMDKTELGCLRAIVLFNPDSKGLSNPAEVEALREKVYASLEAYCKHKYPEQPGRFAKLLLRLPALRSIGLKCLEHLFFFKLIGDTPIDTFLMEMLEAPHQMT
Kind of data set: Human PPARγ1 antagonist assay (luciferase reporter in PPARγ:RXRα:4ERPP/CHO-K1 cells). The data set is classed as cell-based. The note with it: 10 nM compound A as stimulant, luciferase activity, 24 hrs, read-out: Inhibitory rate (%); for inhibition at 1 µM: test compound 10^−6 M. Background: Reporter assays use an easily measured gene product as a stand-in for the process of interest.

For `COc1cc(COc2nn(-c3ccccc3)cc2/C=C/P(=O)(OC(C)C)OC(C)C)ccc1OCc1nc(-c2ccco2)oc1C` [Example 145, diisopropyl (E)-2-{3-[(4-{[2-(2-furyl)-5-methyl-1,3-oxazol-4-yl]methoxy}-3-methoxybenzyl)oxy]-1-phenyl-1H-pyrazol-4-yl}ethenylphosphonate], the melting point (usually the temperature of the solid-liquid transition) was 152 to 153 °C. Besides, the inhibition at 1 µM on human PPARγ1 is 96%.
`CCOP(=O)(/C=C/c1cn(-c2ccccc2)nc1OCc1ccc(OCc2nc(-c3ccccc3)oc2C)c(OC)c1)OCC` [Example 146, diethyl (E)-2-[3-({3-methoxy-4-[(5-methyl-2-phenyl-1,3-oxazol-4-yl)methoxy]benzyl}oxy)-1-phenyl-1H-pyrazol-4-yl]ethenylphosphonate]: the melting point was 92 to 93 °C. Also, the inhibition at 1 µM at human PPARγ1 turned out to be 111%.
In turn, `COc1cc(COc2nn(-c3ccccc3)cc2/C=C/c2csc(C)n2)ccc1OCc1nc(-c2ccco2)oc1C` [Example 150 (E form), 2-(2-furyl)-4-({2-methoxy-4-[({4-[(E)-2-(2-methyl-1,3-thiazol-4-yl)ethenyl]-1-phenyl-1H-pyrazol-3-yl}oxy)methyl]phenoxy}methyl)-5-methyl-1,3-oxazole] showed a melting point of 111 to 112 °C. In addition, the inhibition at 1 µM at human PPARγ1 is 82%.
Taken in the same sequence, the figures for `CCC(=O)/C=C/c1cn(-c2ccccc2)nc1OCc1ccc(OCc2nc(-c3ccco3)oc2C)c(OC)c1` [Example 156, (1E)-1-{3-[(4-{[2-(2-furyl)-5-methyl-1,3-oxazol-4-yl]methoxy}-3-methoxybenzyl)oxy]-1-phenyl-1H-pyrazol-4-yl}-1-penten-3-one] were 167 to 168 °C and 66%.
With `CCOP(=O)(/C=C/c1cn(-c2ccccc2)nc1OCc1ccc(OCc2csc(N3CCOCC3)n2)c(OC)c1)OCC` [Example 191, diethyl (E)-2-{3-[(3-methoxy-4-{[2-(morpholin-4-yl)-1,3-thiazol-4-yl]methoxy}benzyl)oxy]-1-phenyl-1H-pyrazol-4-yl}ethenylphosphonate], the melting point was 93 to 94 °C. The inhibition at 1 µM on human PPARγ1 came out at 79%.
In the case of `CCOP(=O)(/C=C/c1cn(-c2ccccc2)nc1OCc1ccc(OCc2nc(-c3cccc(C(=O)O)c3)oc2C)c(OC)c1)OCC` [Example 203, 3-[4-({4-[({4-[(E)-2-(diethoxyphosphoryl)ethenyl]-1-phenyl-1H-pyrazol-3-yl}oxy)methyl]-2-methoxyphenoxy}methyl)-5-methyl-1,3-oxazol-2-yl]benzoic acid], the melting point lay within 148 to 149 °C. Moreover, the inhibition at 1 µM on human PPARγ1 is 111%.
Taken in the same sequence, the figures for `CCOP(=O)(/C=C/c1cn(-c2ccccc2)nc1OCc1ccc(OCc2nc(-c3cccc(C(=O)OC)c3)oc2C)c(OC)c1)OCC` [Example 211, methyl 3-[4-({4-[({4-[(E)-2-(diethoxyphosphoryl)ethenyl]-1-phenyl-1H-pyrazol-3-yl}oxy)methyl]-2-methoxyphenoxy}methyl)-5-methyl-1,3-oxazol-2-yl]benzoate] were 141 to 142 °C and 110%.
In turn, `CCc1nc(/C=C/c2cn(-c3ccccc3)nc2OCc2ccc(OCc3nc(-c4cccc(C(=O)O)c4)oc3C)c(OC)c2)cs1` [Example 224, 3-[4-({4-[({4-[(E)-2-(2-ethyl-1,3-thiazol-4-yl)ethenyl]-1-phenyl-1H-pyrazol-3-yl}oxy)methyl]-2-methoxyphenoxy}methyl)-5-methyl-1,3-oxazol-2-yl]benzoic acid] yielded a melting point of 190 to 191 °C. For the same molecule, the inhibition at 1 µM on human PPARγ1 amounted to 112%.
On the same counts, the results for `CCOP(=O)(/C=C/c1cn(-c2ccccc2)nc1OCc1ccc(OCc2nc(-c3cccc(C(N)=O)c3)oc2C)c(OC)c1)OCC` [Example 239, diethyl (E)-2-(3-{[4-({2-[3-(carbamoyl)phenyl]-5-methyl-1,3-oxazol-4-yl}methoxy)-3-methoxybenzyl]oxy}-1-phenyl-1H-pyrazol-4-yl)ethenylphosphonate] are 127 to 128 °C and 116%.
As for `CCOP(=O)(/C=C/c1cn(-c2ccccc2)nc1OCc1ccc(OCc2nc(-c3ccc(OC)c(C(=O)O)c3)oc2C)c(OC)c1)OCC` [Example 252, 5-{4-({4-[({4-[(E)-2-(diethoxyphosphoryl)ethenyl]-1-phenyl-1H-pyrazol-3-yl}oxy)methyl]-2-methoxyphenoxy}methyl)-5-methyl-1,3-oxazol-2-yl}-2-methoxybenzoic acid], the melting point lay in the range of 171 to 172 °C. Besides, on human PPARγ1, the inhibition at 1 µM was 111%.
`COc1cc(COc2nn(-c3ccccc3)cc2/C=C/C#N)ccc1OCc1nc(-c2ccccc2)oc1C` [Example 282, (E)-3-(3-{[3-methoxy-4-(5-methyl-2-phenyl-1,3-oxazol-4-ylmethoxy)benzyl]oxy}-1-phenyl-1H-pyrazol-4-yl)-2-propenonitrile] had a melting point of 184 to 185 °C. The inhibition at 1 µM at human PPARγ1 was found to be 69%.
On to `CCOC(=O)/C=C/c1cn(-c2ccccc2)nc1OCc1ccc(OCc2nc(-c3ccccc3)oc2C)c(OC)c1` [Example 284, ethyl (E)-3-(3-{[3-methoxy-4-(5-methyl-2-phenyl-1,3-oxazol-4-ylmethoxy)benzyl]oxy}-1-phenyl-1H-pyrazol-4-yl)-2-propenoate], for which the melting point lay in the range of 194 to 195 °C. The inhibition at 1 µM at human PPARγ1 came out at 107%.
Molecule `CCc1nc(/C=C/c2cn(-c3ccccc3)nc2OCc2ccc(OCc3nc(-c4cccc(C(=O)O)c4)oc3C)c(OC)c2)co1` [Example 307] yielded a melting point of 169 to 171 °C. Moreover, at human PPARγ1, the inhibition at 1 µM came out at 108%.
The molecule `CCOP(=O)(/C=C/c1cn(-c2ccccc2)nc1OCc1ccc(OCc2nc(/C=C/C(=O)O)oc2C)c(OC)c1)OCC` [Example 315, (2E)-3-[4-({4-[({4-[(E)-2-(diethoxyphosphoryl)ethenyl]-1-phenyl-1H-pyrazol-3-yl}oxy)methyl]-2-methoxyphenoxy}methyl)-5-methyl-1,3-oxazol-2-yl]-2-propenoic acid] registered a melting point of 89 to 90 °C. For the same molecule, on human PPARγ1 (test compound 10^−5 M), the inhibition at 10 µM is 112%.
The molecule `CCn1cnc(/C=C/c2cn(-c3ccccc3)nc2OCc2ccc(OCc3nc(-c4ccc(CC(=O)O)cc4)oc3C)c(OC)c2)c1` [Example 344, (4-{4-[(4-[({4-[(E)-2-(1-ethyl-1H-imidazol-4-yl)ethenyl]-1-phenyl-1H-pyrazol-3-yl}oxy)methyl]-2-methoxyphenoxy)methyl]-5-methyl-1,3-oxazol-2-yl}phenyl)acetic acid] registered a melting point of 194 to 196 °C. The inhibition at 1 µM at human PPARγ1 came to 103%.
